Laboratory results taken from patent US12447153B2, “HER2 mutation inhibitors” (Array BioPharma Inc., priority 2021, dated 2025).

Tests used:
EGFR = EGFR (Homo sapiens (Human), UniProt P00533); assay: ErbB Enzyme Assay (HTRF KinEASE-TK), Assay 3; assay type: biochemical
Experimental: The kinases were incubated with 250 nM TK-substrate biotin (CisBio, part of cat #62TKOPEC) at 1 mM ATP along with test compounds in a buffer consisting of 25 mM HEPES, pH 7.4, 10 mM MgCl2, 0.01% Triton X-100, and 2% DMSO in a volume of 8 μL. […] After 30-minute incubation at 22° C., the reaction was quenched by adding 8 μL of quench solution containing 62.5 nM Sa-XL665 and 0.25×TK-Ab-Cryptate in HTRF detection buffer (all from CisBio, part of cat #62TKOPEC). […] A 4-parameter logistic curve was fit to the POC values as a function of the concentration of compound, and the IC50 value was the point where the best-fit curve crossed 50 POC.

[1] = target: ErbB2 with Exon 20 YVMA insertion (HER2-YVMA) (Homo sapiens (Human), UniProt P04626, INS775YVMA); assay: Cellular Phosphorylation Assay, Assay 4 (constitutive ErbB2 phosphorylation, NIH 3T3 cells); assay type: cell-based; conditions: ErbB2 YVMA phosphorylation
Experimental: (§1) NIH 3T3 cells were engineered to express ErbB2 with Exon 20 YVMA insertion (HER2-YVMA (SEQ ID NO: 2); Assay 4) or EGFR wild type (EGFR WT; Assay 5) with constructs obtained from GenScript and grown in DMEM supplemented with 10% fetal bovine serum and 15 μg/ml blasticidin. […] Serially diluted compounds were added to the plates for 1 hour at 37° C./5% CO2. EGFR WT cells were stimulated with 100 ng/ml rEGF for an additional 10 minutes at 37° C./5% CO2.
(§2) After compound incubation, medium was removed from the cells, which were then fixed in 3.7% formaldehyde in PBS at room temperature for 20 minutes. Following a wash with PBS, cells were permeabilized with 100% methanol at room temperature for 10 minutes. Cells were then washed with PBS/0.05% Tween-20 and blocked with Odyssey blocking buffer (LI-COR Biosciences) for at least 1 hour at room temperature. Antibodies to phosphorylated ErbB2 (Y1196, Cell Signaling #6942) or phosphorylated EGFR (Y1068, Cell Signaling #3777) and GAPDH (Millipore #MAB374) were added to the cells in blocking buffer containing 0.05% azide and incubated overnight at 4° C. After washing with PBS/0.05% Tween-20, the cells were incubated with fluorescently labeled secondary anti-rabbit antibody (LiCOR, IRDye 800CW #926-32211) and anti-mouse antibody (Molecular Probes, Alexa Fluor 680 #A21058) for 1 hour at room temperature in the dark. Cells were then washed and analyzed for fluorescence at both wavelengths using the Odyssey Infrared Imaging System (LI-COR Biosciences). Phosphorylated ErbB2 and EGFR signal was normalized to GAPDH signal to generate curves and calculate IC50 values.

ErbB2 WT = ErbB2 WT (Homo sapiens (Human), UniProt P04626); assay: ErbB Enzyme Assay (HTRF KinEASE-TK), Assay 2; assay type: biochemical; conditions: ErbB2 WT enzyme
Experimental: The kinases were incubated with 250 nM TK-substrate biotin (CisBio, part of cat #62TKOPEC) at 1 mM ATP along with test compounds in a buffer consisting of 25 mM HEPES, pH 7.4, 10 mM MgCl2, 0.01% Triton X-100, and 2% DMSO in a volume of 8 μL. […] After 30-minute incubation at 22° C., the reaction was quenched by adding 8 μL of quench solution containing 62.5 nM Sa-XL665 and 0.25×TK-Ab-Cryptate in HTRF detection buffer (all from CisBio, part of cat #62TKOPEC).

EGFR wild type (EGFR WT) = EGFR wild type (EGFR WT) (Homo sapiens (Human), UniProt P00533); assay: Cellular Phosphorylation Assay, Assay 5 (EGF-stimulated EGFR phosphorylation, NIH 3T3 cells); assay type: cell-based
Experimental: as §1, §2

[2] = cellular EGFR WT phosphorylation, EGF-stimulated
[3] = EGF-stimulated EGFR WT phosphorylation

Sequence of ErbB2 with Exon 20 YVMA insertion (HER2-YVMA) (P04626 other isoform, or with tags, fused parts or gaps ins YVMA behind 775): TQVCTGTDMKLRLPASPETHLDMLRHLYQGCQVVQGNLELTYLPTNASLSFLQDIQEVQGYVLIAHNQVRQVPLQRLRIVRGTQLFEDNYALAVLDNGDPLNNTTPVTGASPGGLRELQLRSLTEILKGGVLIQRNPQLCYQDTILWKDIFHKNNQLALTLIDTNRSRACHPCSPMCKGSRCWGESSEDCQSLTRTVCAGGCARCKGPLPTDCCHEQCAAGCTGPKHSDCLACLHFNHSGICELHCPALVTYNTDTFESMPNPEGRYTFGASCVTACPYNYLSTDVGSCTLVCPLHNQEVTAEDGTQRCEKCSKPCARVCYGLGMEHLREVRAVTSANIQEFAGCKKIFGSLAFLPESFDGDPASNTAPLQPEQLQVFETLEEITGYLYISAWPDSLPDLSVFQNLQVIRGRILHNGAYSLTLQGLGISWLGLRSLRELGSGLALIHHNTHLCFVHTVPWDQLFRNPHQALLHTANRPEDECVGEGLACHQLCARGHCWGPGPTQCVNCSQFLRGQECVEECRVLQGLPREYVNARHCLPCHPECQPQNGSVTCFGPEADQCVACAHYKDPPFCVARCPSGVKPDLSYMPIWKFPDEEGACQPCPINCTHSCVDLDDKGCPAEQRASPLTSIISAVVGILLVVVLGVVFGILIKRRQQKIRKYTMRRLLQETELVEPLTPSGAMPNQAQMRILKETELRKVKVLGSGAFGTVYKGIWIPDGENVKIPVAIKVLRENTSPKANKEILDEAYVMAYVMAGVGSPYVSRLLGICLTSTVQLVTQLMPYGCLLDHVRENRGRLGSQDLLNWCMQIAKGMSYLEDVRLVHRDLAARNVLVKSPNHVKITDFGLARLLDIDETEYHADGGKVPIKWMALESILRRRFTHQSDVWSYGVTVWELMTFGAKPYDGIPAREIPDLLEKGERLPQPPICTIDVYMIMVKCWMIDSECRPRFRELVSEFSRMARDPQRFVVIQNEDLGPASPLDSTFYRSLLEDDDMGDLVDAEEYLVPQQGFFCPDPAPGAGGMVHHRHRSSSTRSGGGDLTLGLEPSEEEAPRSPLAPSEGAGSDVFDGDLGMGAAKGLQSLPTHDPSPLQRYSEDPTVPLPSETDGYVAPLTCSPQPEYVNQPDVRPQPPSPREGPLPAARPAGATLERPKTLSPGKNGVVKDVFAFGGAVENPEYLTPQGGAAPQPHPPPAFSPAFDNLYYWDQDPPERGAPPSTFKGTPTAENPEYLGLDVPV
Sequence of EGFR wild type (EGFR WT) (P00533 25-1210): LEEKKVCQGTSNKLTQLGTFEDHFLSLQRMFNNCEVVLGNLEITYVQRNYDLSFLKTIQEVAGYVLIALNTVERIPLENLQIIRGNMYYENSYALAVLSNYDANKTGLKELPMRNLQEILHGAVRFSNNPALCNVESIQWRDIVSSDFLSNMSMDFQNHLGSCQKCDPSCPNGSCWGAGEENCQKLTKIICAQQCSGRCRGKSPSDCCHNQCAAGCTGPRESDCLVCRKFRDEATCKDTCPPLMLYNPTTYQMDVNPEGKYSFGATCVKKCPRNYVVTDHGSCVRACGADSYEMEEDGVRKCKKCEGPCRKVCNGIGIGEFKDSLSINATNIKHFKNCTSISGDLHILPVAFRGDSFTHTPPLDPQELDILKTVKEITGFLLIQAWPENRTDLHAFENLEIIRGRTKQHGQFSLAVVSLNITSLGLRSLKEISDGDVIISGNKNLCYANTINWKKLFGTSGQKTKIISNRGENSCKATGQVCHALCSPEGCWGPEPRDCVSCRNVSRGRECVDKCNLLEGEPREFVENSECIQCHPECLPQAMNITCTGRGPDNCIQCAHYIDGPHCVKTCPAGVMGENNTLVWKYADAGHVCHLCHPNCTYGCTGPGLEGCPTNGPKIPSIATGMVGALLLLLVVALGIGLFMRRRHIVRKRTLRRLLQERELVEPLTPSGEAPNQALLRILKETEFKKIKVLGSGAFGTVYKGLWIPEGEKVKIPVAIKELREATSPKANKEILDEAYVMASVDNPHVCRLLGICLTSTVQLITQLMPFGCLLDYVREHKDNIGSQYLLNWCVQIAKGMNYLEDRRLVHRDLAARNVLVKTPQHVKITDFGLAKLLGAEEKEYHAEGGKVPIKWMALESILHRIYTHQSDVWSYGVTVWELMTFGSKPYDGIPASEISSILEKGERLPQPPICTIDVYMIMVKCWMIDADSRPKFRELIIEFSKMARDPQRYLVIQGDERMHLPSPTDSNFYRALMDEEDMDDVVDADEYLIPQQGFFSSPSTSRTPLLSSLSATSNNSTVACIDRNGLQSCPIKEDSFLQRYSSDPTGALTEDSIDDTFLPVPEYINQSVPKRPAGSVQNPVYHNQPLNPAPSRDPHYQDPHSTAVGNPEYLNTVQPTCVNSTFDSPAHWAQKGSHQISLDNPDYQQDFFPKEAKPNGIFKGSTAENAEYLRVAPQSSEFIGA
Sequence of EGFR (P00533 25-1210): as above
Sequence of ErbB2 WT (P04626 23-1255): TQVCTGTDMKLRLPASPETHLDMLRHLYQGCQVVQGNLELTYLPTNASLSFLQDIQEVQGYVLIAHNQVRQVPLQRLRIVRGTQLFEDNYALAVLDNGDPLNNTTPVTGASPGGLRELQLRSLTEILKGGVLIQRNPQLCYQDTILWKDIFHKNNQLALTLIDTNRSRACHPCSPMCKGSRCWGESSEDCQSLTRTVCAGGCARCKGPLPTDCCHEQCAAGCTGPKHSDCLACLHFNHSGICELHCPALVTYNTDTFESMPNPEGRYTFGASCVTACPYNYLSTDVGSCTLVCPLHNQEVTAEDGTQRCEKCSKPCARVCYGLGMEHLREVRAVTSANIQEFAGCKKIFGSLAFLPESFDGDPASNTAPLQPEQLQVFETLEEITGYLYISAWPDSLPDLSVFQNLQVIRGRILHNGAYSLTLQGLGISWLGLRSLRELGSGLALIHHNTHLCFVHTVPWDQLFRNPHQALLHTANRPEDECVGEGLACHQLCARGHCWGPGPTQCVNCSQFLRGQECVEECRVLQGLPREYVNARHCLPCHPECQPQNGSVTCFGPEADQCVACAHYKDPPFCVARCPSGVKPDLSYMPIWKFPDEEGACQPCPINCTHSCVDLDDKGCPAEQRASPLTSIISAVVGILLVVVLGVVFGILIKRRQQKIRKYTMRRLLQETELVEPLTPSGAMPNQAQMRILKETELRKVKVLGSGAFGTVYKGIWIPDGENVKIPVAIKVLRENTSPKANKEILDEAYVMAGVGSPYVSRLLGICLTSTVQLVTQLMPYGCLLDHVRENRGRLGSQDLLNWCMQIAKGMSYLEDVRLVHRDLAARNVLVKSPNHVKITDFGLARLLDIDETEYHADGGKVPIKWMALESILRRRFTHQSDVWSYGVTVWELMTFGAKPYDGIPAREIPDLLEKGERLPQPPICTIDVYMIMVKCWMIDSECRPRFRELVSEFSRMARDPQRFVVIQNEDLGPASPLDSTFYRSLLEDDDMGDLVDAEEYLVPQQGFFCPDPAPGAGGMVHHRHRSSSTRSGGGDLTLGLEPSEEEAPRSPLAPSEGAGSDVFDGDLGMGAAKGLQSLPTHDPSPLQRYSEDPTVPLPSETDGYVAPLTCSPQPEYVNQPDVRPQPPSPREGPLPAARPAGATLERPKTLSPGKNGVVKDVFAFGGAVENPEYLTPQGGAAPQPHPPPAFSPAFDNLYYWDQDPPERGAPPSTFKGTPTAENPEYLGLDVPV

SMILES | IC50 (EGFR; EGFR enzyme) | IC50 [1] | IC50 (ErbB2 WT) | IC50 (EGFR; EGFR enzyme assay) | IC50 (EGFR wild type (EGFR WT); [2]) | IC50 (EGFR wild type (EGFR WT); [3])
C=CC(=O)N(C)c1ccc2ncnc(Nc3ccc(Oc4ccc5c(c4)ncn5C)c(C)c3)c2n1 [Example 23, N-methyl-N-(4-((3-methyl-4-((1-methyl-1H-benzo[d]imidazol-5-yl)oxy)phenyl)amino)pyrido[3,2-d]pyrimidin-6-yl)acrylamide] | 0.709 µM | 0.0639 µM | 0.0727 µM |  |  | 
CC#CC(=O)N1CCN(c2ccc3ncnc(Nc4ccc(Oc5ccn6ncnc6c5)c(C)c4F)c3n2)C[C@H]1C [Example 184, (R)-1-(4-(4-((4-([1,2,4]triazolo[1,5-a]pyridin-7-yloxy)-2-fluoro-3-methylphenyl)amino)pyrido[3,2-d]pyrimidin-6-yl)-2-methylpiperazin-1-yl)but-2-yn-1-one] | ≥ 10 µM |  |  |  |  | ≥ 5 µM
C=CS(=O)(=O)Nc1ccc2ncnc(Nc3ccc(Oc4ccc5c(c4)ncn5C)c(C)c3)c2n1 [Example 20, N-(4-((3-methyl-4-((1-methyl-1H-benzo[d]imidazol-5-yl)oxy)phenyl)amino)pyrido[3,2-d]pyrimidin-6-yl)ethenesulfonamide] | 0.34 µM | 1.74 µM | 0.0479 µM |  |  | 
CNC(=O)/C=C/c1ccc2ncnc(Nc3ccc(Oc4ccc5c(c4)ncn5C)c(C)c3)c2n1 [Example 22, (E)-N-methyl-3-(4-((3-methyl-4-((1-methyl-1H-benzo[d]imidazol-5-yl)oxy)phenyl)amino)pyrido[3,2-d]pyrimidin-6-yl)acrylamide] | ≥ 10 µM | 0.0806 µM | 0.167 µM |  |  | 
C=CC(=O)N1CCC(Oc2ccc3ncnc(Nc4ccc(Oc5ccc6sc(C)nc6c5)c(C)c4F)c3n2)CC1 [Example 10, 1-(4-((4-((2-fluoro-3-methyl-4-((2-methylbenzo[d]thiazol-5-yl)oxy)phenyl)amino)pyrido[3,2-d]pyrimidin-6-yl)oxy)piperidin-1-yl)prop-2-en-1-one] | ≥ 10 µM |  | 2.4 µM |  |  | 
C=CC(=O)N1CCC(Oc2ccc3ncnc(Nc4ccc(Oc5ccc6sc(C)nc6c5)c(Cl)c4F)c3n2)CC1 [Example 16, 1-(4-((4-((3-chloro-2-fluoro-4-((2-methylbenzo[d]thiazol-5-yl)oxy)phenyl)amino)pyrido[3,2-d]pyrimidin-6-yl)oxy)piperidin-1-yl)prop-2-en-1-one] | ≥ 10 µM |  | 10 µM |  |  | 
C=CC(=O)N1CCC(Oc2ccc3ncnc(Nc4ccc(Oc5cnc6cn(C)nc6c5)c(C)c4F)c3n2)CC1 [Example 58, 1-(4-((4-((2-fluoro-3-methyl-4-((2-methyl-2H-pyrazolo[4,3-b]pyridin-6-yl)oxy)phenyl)amino)pyrido[3,2-d]pyrimidin-6-yl)oxy)piperidin-1-yl)prop-2-en-1-one] | ≥ 10 µM |  |  |  |  | 2.23 µM
C=CC(=O)N1CCN(c2ccc3ncnc(Nc4ccc(Oc5ccn6ncnc6c5)c(C)c4F)c3n2)C[C@@H]1CC [Example 269] |  |  |  | 8.2 µM | ≥ 5 µM | 
C=CC(=O)N1CCC12CN(c1ccc3ncnc(Nc4ccc(Oc5ccn6ncnc6c5)c(C)c4F)c3n1)C2 [Example 275] |  |  |  | 0.895 µM | 0.526 µM | 
C=CC(=O)N1[C@H](C)CN(c2ccc3ncnc(Nc4ccc(Oc5ccn6ncnc6c5)c(C)c4F)c3n2)C[C@@H]1C [Example 264] |  |  |  | 6.67 µM | 4.55 µM | 
C=CC(=O)N1CC[C@H]2CN(c3ccc4ncnc(Nc5ccc(Oc6ccc7c(c6)ncn7C)c(C)c5)c4n3)C[C@H]21 (racemic) [Example 104, rac-1-((3aR,6aR)-5-(4-((3-methyl-4-((1-methyl-1H-benzo[d]imidazol-5-yl)oxy)phenyl)amino)pyrido[3,2-d]pyrimidin-6-yl)hexahydropyrrolo[3,4-b]pyrrol-1(2H)-yl)prop-2-en-1-one] | ≥ 10 µM |  |  |  |  | ≥ 5 µM
C=CC(=O)N1CC[C@H]2CN(c3ccc4ncnc(Nc5ccc(Oc6ccc7c(c6)ncn7C)c(C)c5)c4n3)C[C@H]21 [Example 117, 1-((3aS,6aS)-5-(4-((3-methyl-4-((1-methyl-1H-benzo[d]imidazol-5-yl)oxy)phenyl)amino)pyrido[3,2-d]pyrimidin-6-yl)hexahydropyrrolo[3,4-b]pyrrol-1(2H)-yl)prop-2-en-1-one] | ≥ 10 µM |  |  |  |  | ≥ 5 µM
C=CC(=O)N1CC[C@@H]2CN(c3ccc4ncnc(Nc5ccc(Oc6ccc7c(c6)ncn7C)c(C)c5)c4n3)C[C@@H]21 [Example 111, 1-((3aR,6aR)-5-(4-((3-methyl-4-((1-methyl-1H-benzo[d]imidazol-5-yl)oxy)phenyl)amino)pyrido[3,2-d]pyrimidin-6-yl)hexahydropyrrolo[3,4-b]pyrrol-1(2H)-yl)prop-2-en-1-one] | ≥ 10 µM |  |  |  |  | ≥ 5 µM
C=CC(=O)N1C2COCC1CC(c1ccc3ncnc(Nc4ccc(Oc5ccc6c(c5)ncn6C)c(C)c4F)c3n1)C2 (centres unmarked) [Example 161, 1-(7-(4-((2-fluoro-3-methyl-4-((1-methyl-1H-benzo[d]imidazol-5-yl)oxy)phenyl)amino)pyrido[3,2-d]pyrimidin-6-yl)-3-oxa-9-azabicyclo[3.3.1]nonan-9-yl)prop-2-en-1-one] | 0.57 µM |  | 0.0199 µM |  |  | 0.368 µM
C=CC(=O)N1CCC(Oc2ccc3ncnc(Nc4ccc(Oc5ccc6sc(C)nc6c5)c(C)c4)c3n2)CC1 [Example 7, 1-(4-((4-((3-methyl-4-((2-methylbenzo[d]thiazol-5-yl)oxy)phenyl)amino)pyrido[3,2-d]pyrimidin-6-yl)oxy)piperidin-1-yl)prop-2-en-1-one] | ≥ 10 µM |  | 2.09 µM |  |  | 

Continued, values first:

IC50 (EGFR; EGFR enzyme) | IC50 [1] | IC50 (ErbB2 WT) | IC50 (EGFR; EGFR enzyme assay) | IC50 (EGFR wild type (EGFR WT); [2]) | IC50 (EGFR wild type (EGFR WT); [3]) | SMILES
 |  |  | ≥ 10 µM | ≥ 5 µM |  | C=CC(=O)N1CC2(C1)CN(c1ccc3ncnc(Nc4cc(Cl)c(Oc5ccn6ncnc6c5)cc4F)c3n1)C2 [Example 342]
≥ 10 µM |  |  |  |  | 3.22 µM | C=CC(=O)N1CC[C@H]2CN(c3ccc4ncnc(Nc5ccc(Oc6ccn7ncnc7c6)c(C)c5F)c4n3)C[C@H]21 [Example 50, 1-((3aS,6aS)-5-(4-((4-([1,2,4]triazolo[1,5-a]pyridin-7-yloxy)-2-fluoro-3-methylphenyl)amino)pyrido[3,2-d]pyrimidin-6-yl)hexahydropyrrolo[3,4-b]pyrrol-1(2H)-yl)prop-2-en-1-one]
 |  |  | 4.06 µM | ≥ 5 µM |  | C=CC(=O)N1C[C@H]2CC[C@@H]1[C@@H](c1ccc3ncnc(Nc4cc(C)c(Oc5ccn6ncnc6c5)cc4F)c3n1)C2 [Example 396]
5 µM |  |  |  |  | ≥ 5 µM | C=CC(=O)N1C[C@H]2CC[C@@H]1C[C@@H]2c1ccc2ncnc(Nc3cc(C)c(Oc4ccn5ncnc5c4)cc3F)c2n1 (racemic) [Example 216, rac-1-((1R,4S,5S)-5-(4-((4-([1,2,4]triazolo[1,5-a]pyridin-7-yloxy)-2-fluoro-5-methylphenyl)amino)pyrido[3,2-d]pyrimidin-6-yl)-2-azabicyclo[2.2.2]octan-2-yl)prop-2-en-1-one]
 |  |  | 4.94 µM | ≥ 5 µM |  | C=CC(=O)N1C[C@H]2CC[C@@H]1C[C@H]2c1ccc2ncnc(Nc3cc(C)c(Oc4ccn5ncnc5c4)cc3F)c2n1 [Example 402]
≥ 10 µM |  |  |  |  | ≥ 5 µM | C=CC(=O)N1CC[C@@H]2CN(c3ccc4ncnc(Nc5ccc(Oc6ccn7ncnc7c6)c(C)c5F)c4n3)C[C@@H]21 [Example 71, 1-((3aR,6aR)-5-(4-((4-([1,2,4]triazolo[1,5-a]pyridin-7-yloxy)-2-fluoro-3-methylphenyl)amino)pyrido[3,2-d]pyrimidin-6-yl)hexahydropyrrolo[3,4-b]pyrrol-1(2H)-yl)prop-2-en-1-one]
 |  |  | 2.35 µM | 0.681 µM |  | C=CC(=O)N1CCN(c2ccc3ncnc(Nc4ccc(Oc5ccn6ncnc6c5)c(C)c4F)c3n2)C[C@H]1CC [Example 274]
 |  |  | ≥ 10 µM | ≥ 5 µM |  | C=CC(=O)N1C[C@H]2CC[C@@H]1[C@H](c1ccc3ncnc(Nc4cc(C)c(Oc5ccn6ncnc6c5)cc4F)c3n1)C2 [Example 395]
